Source: patent US8337941B2, “Fluorescent substrates for monoamine transporters as optical false neurotransmitters” (The Trustees of Columbia University in the City of New York, priority 2006, dated 2012)
Entries after “also recorded” stand apart in the source; their conditions may differ. Like-named read-outs stand apart in the source and are kept apart here.

Key:
DA terminals = assay: labeling and destaining of DA terminals in live striatal acute slice; type: cell-based, mouse
From the text: Distribution of FFN 511 was compared to DA neurons using striatal slices prepared from a transgenic mouse expressing GFP under the control of tyrosine hydroxylase (TH) promoter (36).
As FFN 511 was applied in a “pulse-chase” pattern, with the extracellular probe washed out following accumulation in the terminals, these experiments essentially measure the amount of DA remaining in the terminal and the released transmitter. The probability of release from a given terminal under a particular stimulus condition is simply the fractional destaining, i.e., Pterminal=Ft/(Ft0−Fbkgnd) Pterminal=1−(Ft−Fbkg)/(Ft0−Fbkg),
where Ft0 is the initial fluorescent intensity and Fbkgnd is the label remaining after maximal stimulus is applied.

[1] = photophysical characterization (fluorescence spectra); type: physicochemical; settings: for λem / λex: 100 mM sodium phosphate pH 7.4, 10 uM probe; for pH dependency of fluorescence: spectra at pH 2, 5, 7.4, 9 and 12
Procedure: All spectra were recorded in 100 mM sodium phosphate (pH 7.4) unless otherwise indicated. Recorded λmax is that of the longest wavelength transition. Extinction coefficients were reported as the average of at least three independent preparations of the probes. Fluorescence measurements were taken on a Jobin Yvon Fluorolog fluorescence spectrofluorometer in 100 mM sodium phosphate pH 7.4 at a concentration of 10 uM in probe, excited at their respective λmax.

evoked DA release = evoked DA release in slice measured by cyclic voltammetry; type: cell-based, mouse
From the text: FFN 511 was destained by neuronal stimulation in a calcium-dependent manner under conditions identical to those that release DA as measured by simultaneous cyclic voltammetry. (FFN 511 is not oxidized and not measured by cyclic voltammetry).

chromaffin cells [2] = assay: probe uptake and labeling in chromaffin cells by fluorescence microscopy; type: cell-based, mouse
From the text: Chromaffin cells are an excellent model system as the cytoplasm of these cells in culture is almost completely filled with large dense core vesicles that accumulate catecholamines by VMAT.
If necessary, metabolism of the probes by MAO (present in mitochondria) may be reduced by the addition of a suitable inhibitor (deprenyl for MAO B, clorgyline for MAO A) or by simply methylating the α-position of the amine (10, 14).
Catecholamines are stored in chromaffin large dense core vesicles (LDCVs), which contain vesicular monoamine transporter 1 (VMAT1). Although VMAT 1 and 2 are distinct proteins, they share many functional characteristics.

VMAT2 = target: T1, VMAT2 (Homo sapiens, UniProt Q05940); assay: in vitro competitive binding assay, membranes from HEK cells stably transfected with VMAT2; settings: inhibition of binding to membranes from HEK cells stably transfected with VMAT2; read-out: apparent IC50
T1 construct: expressed in transfected cells; host or cells: HEK cells, stably transfected; membranes
From the text: On the basis of initial encouraging results, compound FFN 511 was submitted to rigorous investigation, from which it emerged as a promising imaging probe. Catecholamines are stored in chromaffin large dense core vesicles (LDCVs), which contain vesicular monoamine transporter 1 (VMAT1). Although VMAT 1 and 2 are distinct proteins, they share many functional characteristics.

chromaffin cells [3] = assay: TIRF assay of stimulation-dependent exocytosis from FFN 511-loaded chromaffin granules; type: cell-based, mouse; settings: single LDCV
From the text: Total internal reflectance fluorescence microscopy (TIRF) was used as a functional assay for the ability of FFN 511-loaded chromaffin granules to undergo stimulation-dependent exocytosis. TIRF allows for fluorescence excitation in a narrow −100 nm thick layer of the cell immediately adjacent to the surface.

[4] = 4 Hz stimulation, in the presence of calcium

T1 sequence (Q05940 whole entry, species assumed): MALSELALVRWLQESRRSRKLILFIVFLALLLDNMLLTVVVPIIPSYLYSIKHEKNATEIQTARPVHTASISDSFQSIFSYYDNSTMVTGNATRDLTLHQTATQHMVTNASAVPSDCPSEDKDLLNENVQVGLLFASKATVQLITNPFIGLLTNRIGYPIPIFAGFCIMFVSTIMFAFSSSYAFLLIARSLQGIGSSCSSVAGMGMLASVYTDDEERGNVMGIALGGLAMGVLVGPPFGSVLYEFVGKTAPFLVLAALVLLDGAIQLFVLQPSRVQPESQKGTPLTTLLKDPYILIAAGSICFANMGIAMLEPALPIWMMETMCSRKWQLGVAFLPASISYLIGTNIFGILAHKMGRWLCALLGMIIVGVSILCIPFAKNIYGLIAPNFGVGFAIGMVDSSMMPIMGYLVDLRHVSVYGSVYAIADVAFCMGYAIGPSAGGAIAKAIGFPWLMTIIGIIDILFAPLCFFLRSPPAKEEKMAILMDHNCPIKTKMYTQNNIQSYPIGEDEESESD

COC(=O)[C@H]1[C@H]2C[C@@H]3c4[nH]c5cc(OC)ccc5c4CCN3C[C@H]2C[C@@H](OC(=O)c2cc(OC)c(OC)c(OC)c2)[C@@H]1OC [reserpine, reference compound]
inhibition of 511 labeling by VMAT2 inhibitors (DA terminals): strongly inhibited

O=C(O)C(F)(F)F.O=c1cc(O)c2ccc(N3CCNCC3)cc2o1 [Probe 484, 4-(4—Hydroxy-coumarin-7-yl)-piperazin-1-ium trifluoroacetate]
λem [1]: 385 nm | λex [1]: 319 nm | pH dependency of fluorescence ([1]; trifluoroacetate): possess pH-dependency; also recorded: shift in fluorescence emission maxima seen with changing pH

NCCNc1ccc2ccc(=O)oc2c1 [Probe 505, 7-(2-Amino-ethylamino)-coumarin]
λem [1]: 455 nm | λex [1]: 361 nm

CCN(CC)c1ccc2c(C)cc(=O)oc2c1 [Coumarin 1, reference compound]
behaviour of fluorescence in water / aqueous buffer solution [1]: drops in water | λem [1]: 470 nm | λex [1]: 384 nm

COc1cc2c(cc1OC)C1CC(=O)C(CC(C)C)CN1CC2 (stereo not shown) [tetrabenazine, reference compound]
inhibition of 511 labeling by VMAT2 inhibitors (DA terminals; striatal slice, reserpine 10 μM, 2 hours (FIG. 36B)): strongly inhibited

NCCc1cc(=O)oc2c3c4c(cc12)CCCN4CCC3 [Probe 511, 8-(2-Amino-ethyl)-2,3,5,6-tetrahydro-1H,4H-11-oxa-3a-aza-benzo[de]anthracen-10-one]
effect on evoked DA release at higher concentrations (evoked DA release): reduced evoked DA release | effect on evoked DA release at levels sufficient to label the terminals (evoked DA release): did not alter evoked DA release | number of action potentials to release about 50% of the terminal content (DA terminals; [4]): 640 action potentials | time to release about 50% of the terminal content (DA terminals; [4]): ~160 s | fluorescent labeling in corpus callosum (DA terminals; acute slices, mouse CNS): no labeling | fluorescent labeling in cortex (DA terminals; acute slices, mouse CNS): fainter fluorescence with patchy distribution | fluorescent labeling in striatum (DA terminals; acute slices, mouse CNS): clearly observed in presynaptic terminals | FFN 511 labeling after unilateral 6-OHDA lesion of DA neurons (DA terminals; injected hemisphere, slices 21 days post-lesion): nearly completely abolished | calcium dependence of stimulated destaining (DA terminals; neuronal stimulation): completely dependent on the presence of calcium | labeling of chromaffin cells (chromaffin cells [2]): selectively label healthy chromaffin cells | duration of linear increase of intracellular probe concentration (fluorescence) (chromaffin cells [2]; 500 nM in physiological saline solution): at least 60 minutes | uptake into chromaffin vesicles (chromaffin cells [2]; At 50 nM): actively taken up into chromaffin vesicles | time window in which uptake is linear (chromaffin cells [2]; FFN 511 500 nM, single chromaffin cells): 10 to 60 min | accumulation in acidic compartments of the cells (chromaffin cells [2]; abolished by chloroquine exposure): accumulates in acidic compartments | fluorescence after addition of lipophilic weak base chloroquine (chromaffin cells [2]; chloroquine 100 μM): completely abolished | staining of cell nuclei (chromaffin cells [2]; chromaffin cells): nuclear exclusion | effect of VMAT inhibitor tetrabenazine on probe uptake (chromaffin cells [2]; chromaffin cells, TBZ 10 uM (FIG. 20), p=0.001 vs control): abolished by Tetrabenazine; also recorded: inhibited by tetrabenazene | IC50 (VMAT2): 2500 nM | release from LDCVs on high potassium stimulation (chromaffin cells [3]): released by exocytosis | emission maximum ([1]; compared with GFP): ~500 nm | pH dependency of fluorescence [1]: increased fluorescence seen at alkaline pH values

CN(C)c1ccc2cc3ccc(N(C)C)cc3nc2c1 [acridine orange, reference compound]
behaviour of fluorescence in water / aqueous buffer solution [1]: drops in water

CC(N)Cc1ccccc1 (stereo not shown) [amphetamine, reference compound]
loss of 511 fluorescence (DA terminals; 10 μM, 10 min, striatal slice): ~50%

NCCc1ccc(O)c(O)c1 [DA, dopamine, reference compound]
IC50 (VMAT2): ~1000 nM
